Reference: patent publication US4808409A, “Low cariogenic sweetening agents” (Board of Trustees, University of Illinois, priority 1984, dated 1989)
≈ marks a conversion by molar mass, not a printed value.

Tests used:
human taste panel = experiment: Human taste panel magnitude estimation of sweetness intensity and pleasantness; conditions: for Sweetness intensity at matched concentration: sucrose 0.27 M
Source text: Solutions were presented to the subjects in a randomized fashion and were sampled in duplicate. After tasting, each solution was expectorated, and the mouth was washed with distilled water.

Water solubility = format: physicochemical
[1] = Stability in citrate-phosphate-borate buffer solutions by TLC; format: physicochemical
Method: The first of these manipulations was conducted by storage of this compound in citrate-phosphate-borate buffer solutions, at the pH levels 2, 3, 4, 6, 7, 8, 10, and 12. […] Solutions were exposed to the atmosphere after their constitution.
Compound decomposition was assessed by counting the number of zones apparent by TLC analysis 1 hour, 3 hours, 6 hours, 24 hours, 1 week and 2 weeks after solution composition.

[2] = Thermostability of neat hernandulcin at 100° C. by TLC; format: physicochemical
Source text: These figures represent approximations obtained by calculating TLC zone areas.

male Swiss-Webster mice = experiment: in vivo; conditions: oral, in words
Method: (§1) Compounds were suspended in a minimum volume of 1% sodium carboxymethylcellulose, and were administered by oral intubation at the doses indicated in Table II.
^a Male SwissWebster mice (9 or 10 animals per dose).
^d Mortality = number of mice dying within 14 days/number of starting
^e Mortality = number of mice dying within 24 hours/number of startin

[3] = Body weight variation in mice following oral administration; conditions: mouse, in vivo, po
Method: as §1

[4] = system: Salmonella typhimurium strain TM677; experiment: Forward mutation assay; format: cell-based; conditions: summary in words
S. mutans = experiment: Cariogenicity: acid production by S. mutans from sweetener; format: cell-based; conditions: 500 micrograms per unit volume sucrose
Method: In a first test, the ability of microbes to utilize this sweetener source as a nutrient and convert it to acidic by-products was determined.

[5] = natural hernandulcin 2.5 × 10^-4 M
[6] = scale 0-100, natural hernandulcin 2.5 × 10^-4 M
[7] = synthetic hernandulcin, 60° C., 1 week and 2 weeks
[8] = synthetic hernandulcin, 100° C., 24 hours, TLC zone areas

CC(C)=CCC[C@@](C)(O)[C@H]1CCC(C)=CC1=O (relative stereo) [Hernandulcin, 6-(1',5'-dimethyl-1'-hydroxyhex-4'-en-1'-yl)-3-methyl-2-cyclohexen-1-one]
EC (sweetness equal to 0.27 M sucrose) (human taste panel; Homo sapiens, natural hernandulcin, distilled water, 17 participants, read-out: Concentration matching the sweetness of 0.27 M sucrose): 250 µM | Bitterness judged by the panel (human taste panel; in words, natural hernandulcin): moderate bitterness | Off- and after-tastes judged by the panel (human taste panel; in words, natural hernandulcin): significant off- and after-tastes | Pleasantness judged by the panel (human taste panel; in words, natural hernandulcin): less pleasant than sucrose | After-taste intensity (human taste panel; [5]): 30 | After-taste pleasantness (human taste panel; [5]): 0 | Bitterness (human taste panel; [5]): 15 | Off-taste intensity (human taste panel; [5]): 33 | Off-taste pleasantness (human taste panel; [5]): -5 | Concentration matching the sweetness of 0.27 M sucrose (human taste panel; natural hernandulcin, distilled water, 17 participants): ~250 µM | Sweetness intensity, hernandulcin 1.06 × 10^-5 M (human taste panel; natural, 1.06 × 10^-5 M, scale 0-100, mean (standard error)): 9.7 (4.19) | Sweetness pleasantness, hernandulcin 1.06 × 10^-5 M (human taste panel; natural, 1.06 × 10^-5 M, scale -100 to +100, mean (standard error)): 1.2 (5.58) | Sweetness intensity, hernandulcin 2.11 × 10^-5 M (human taste panel; natural, 2.11 × 10^-5 M, scale 0-100, mean (standard error)): 8.8 (2.37) | Sweetness pleasantness, hernandulcin 2.11 × 10^-5 M (human taste panel; natural, 2.11 × 10^-5 M, scale -100 to +100, mean (standard error)): 2.6 (6.00) | Sweetness intensity, hernandulcin 4.24 × 10^-5 M (human taste panel; natural, 4.24 × 10^-5 M, scale 0-100, mean (standard error)): 8.8 (3.18) | Sweetness pleasantness, hernandulcin 4.24 × 10^-5 M (human taste panel; natural, 4.24 × 10^-5 M, scale -100 to +100, mean (standard error)): 1.2 (4.18) | Sweetness intensity, hernandulcin 8.47 × 10^-5 M (human taste panel; natural, 8.47 × 10^-5 M, scale 0-100, mean (standard error)): 15.8 (4.10) | Sweetness pleasantness, hernandulcin 8.47 × 10^-5 M (human taste panel; natural, 8.47 × 10^-5 M, scale -100 to +100, mean (standard error)): 4.9 (7.67) | Sweetness intensity, hernandulcin 16.9 × 10^-5 M (human taste panel; natural, 16.9 × 10^-5 M, scale 0-100, mean (standard error)): 39.7 (3.52) | Sweetness pleasantness, hernandulcin 16.9 × 10^-5 M (human taste panel; natural, 16.9 × 10^-5 M, scale -100 to +100, mean (standard error)): 24.8 (7.99) | Sweetness intensity, hernandulcin 33.9 × 10^-5 M (human taste panel; natural, 33.9 × 10^-5 M, scale 0-100, mean (standard error)): 44.4 (5.45) | Sweetness pleasantness, hernandulcin 33.9 × 10^-5 M (human taste panel; natural, 33.9 × 10^-5 M, scale -100 to +100, mean (standard error)): 8.2 (10.70) | Sweetness intensity, hernandulcin 67.8 × 10^-5 M (human taste panel; natural, 67.8 × 10^-5 M, scale 0-100, mean (standard error)): 62.7 (5.59) | Sweetness pleasantness, hernandulcin 67.8 × 10^-5 M (human taste panel; natural, 67.8 × 10^-5 M, scale -100 to +100, mean (standard error)): -16.2 (9.78) | Sweetness intensity at matched concentration (human taste panel; [6]): 40 | Sweetness pleasantness at matched concentration (human taste panel; scale -100 to +100, natural hernandulcin 2.5 × 10^-4 M): 15 | solubility (Water solubility): ~500 µg/mL (≈ 2120 µM) | Detectability of hernandulcin after storage [1, 7]: detectable at all pH's | pH dependence of decomposition [1, 7]: greater degrees of decomposition being observed at the acid and alkaline pH extremes | Breakdown in buffer at 60° C., 1 week and 2 weeks ([1]; synthetic hernandulcin, about 0.1 wt. %, pH 2-12, 60° C.): substantial breakdown was apparent in all solutions | Decomposition in buffer at 60° C., up to 24 hours ([1]; synthetic hernandulcin, about 0.1 wt. %, pH 2-12, 60° C., up to 24 hours): no decomposition was observed | Breakdown in buffer at room temperature ([1]; synthetic hernandulcin, about 0.1 wt. %, pH 2-12, room temperature, up to two weeks): no compound breakdown was evident | Stability to hydrolysis ([1]; wide pH range, up to about 60° C.): relatively stable to hydrolysis over a wide pH range | remaining at 24 h ([2]; neat compound, read-out: Compound remaining unchanged): ~60% | Conversion to 3-methyl-2-cyclohexen-1-one [2, 8]: ~10% | Conversion to 6-methyl-5-hepten-2-one [2, 8]: ~10% | Acute toxicity for mice (male Swiss-Webster mice): non-toxic | Mortality at doses up to 2 g/kg (male Swiss-Webster mice; up to 2 g/kg body weight): no mortality | Body weight, Day 1 (1.0 g/kg) [3]: 27.1 ± 0.8 g | Body weight, Day 1 (2.0 g/kg) [3]: 25.6 ± 0.9 g | Body weight, Day 3 (1.0 g/kg) [3]: 26.7 ± 0.8 g | Body weight, Day 3 (2.0 g/kg) [3]: 26.3 ± 0.9 g | Body weight, Day 7 (1.0 g/kg) [3]: 27.9 ± 0.8 g | Body weight, Day 7 (2.0 g/kg) [3]: 26.0 ± 0.9 g | Body weight, Day 14 (1.0 g/kg) [3]: 28.1 ± 0.8 g | Body weight, Day 14 (2.0 g/kg) [3]: 27.6 ± 0.9 g | Body weight, pre-drug (1.0 g/kg group) [3]: 29.3 ± 0.8 g | Body weight, pre-drug (2.0 g/kg group) [3]: 26.0 ± 0.9 g | Mutagenicity [4]: non-mutagenic

OC[C@H]1O[C@@](CO)(O[C@H]2O[C@H](CO)[C@@H](O)[C@H](O)[C@H]2O)[C@@H](O)[C@@H]1O [Sucrose, reference compound]
Sweetness intensity, sucrose 0.031 M (human taste panel; 0.031 M, scale 0-100, mean (standard error)): 6.6 (2.44) | Sweetness pleasantness, sucrose 0.031 M (human taste panel; 0.031 M, scale -100 to +100, mean (standard error)): -3.2 (6.44) | Sweetness intensity, sucrose 0.062 M (human taste panel; 0.062 M, scale 0-100, mean (standard error)): 7.8 (1.96) | Sweetness pleasantness, sucrose 0.062 M (human taste panel; 0.062 M, scale -100 to +100, mean (standard error)): -1.6 (7.61) | Sweetness intensity, sucrose 0.125 M (human taste panel; 0.125 M, scale 0-100, mean (standard error)): 21.9 (3.30) | Sweetness pleasantness, sucrose 0.125 M (human taste panel; 0.125 M, scale -100 to +100, mean (standard error)): 19.2 (5.23) | Sweetness intensity, sucrose 0.25 M (human taste panel; 0.25 M, scale 0-100, mean (standard error)): 38.1 (4.43) | Sweetness pleasantness, sucrose 0.25 M (human taste panel; 0.25 M, scale -100 to +100, mean (standard error)): 31.8 (6.34) | Sweetness intensity, sucrose 0.50 M (human taste panel; 0.50 M, scale 0-100, mean (standard error)): 44.4 (4.63) | Sweetness pleasantness, sucrose 0.50 M (human taste panel; 0.50 M, scale -100 to +100, mean (standard error)): 37.8 (5.96) | Sweetness intensity, sucrose 1.0 M (human taste panel; 1.0 M, scale 0-100, mean (standard error)): 75.5 (4.73) | Sweetness pleasantness, sucrose 1.0 M (human taste panel; 1.0 M, scale -100 to +100, mean (standard error)): 2.5 (9.57) | Sweetness intensity, sucrose 2.0 M (human taste panel; 2.0 M, scale 0-100, mean (standard error)): 89.1 (2.93) | Sweetness pleasantness, sucrose 2.0 M (human taste panel; 2.0 M, scale -100 to +100, mean (standard error)): -20.2 (12.69) | Sucrose concentration providing a standard panel response to sucrose intensity (human taste panel; determined graphically): 0.27 M | Sweetness intensity at matched concentration (human taste panel; [6]): 40 | Rate of acid production at 500 micrograms per unit volume (S. mutans): 2.8×10^-4 mEq acid/min.
